{
  "source": "patent US20080176787A1",
  "about": "“Parathyroid hormone analogues and methods of use” (priority 2005, published 2008)",
  "key": {"[1]": {"system": "post-menopausal women with low bone mineral density", "assay": "Dose/weight cutoff subgroup analysis and modeling of Phase II 30 and 45 μg cohorts", "format": "in vivo, human", "settings": "for Headache / HyperCa > 2.65 / HyperCa > 2.75 / N + H / Nausea: unit assumed", "description": "The effect of the dose optimization strategy was evaluated by performing subgroup analyses using actual data from the 30 and 45 μg cohorts of the study (i.e. creation of a new subgroup by combining all patients below the weight cutoff from the 30 μg dose group with all patients above the weight cutoff from the 45 μg dose group, shown in the table below).\nA variety of new subgroups were created out of the patients who participated in the Phase II clinical trial. The groups from Phase II are shown above, where each group received a single dose, either 7.5 μg, 15 μg, 30 μg, 45 μg, or placebo. The 30 μg and 45 μg dose groups were re-grouped, according to the weight of the patient, and over 100 new sub-groups were created. This approach of creating new sub-groups out of dosages which are relatively close to each other, is a novel way of conducting Phase II studies.\nFor the 105 patients who were originally given 30 or 45 μg, new groups were created by utilizing multiple weight cut-offs in increments of 0.5 kg. For example, one new group had the weight cut-off at 59 kg, meaning that every patient from the original low dose (30 μg) group who weighed less than 59 kg and every patient who weighed more than 59 kg from the original high dose (45 μg) group formed a new cohort. This new cohort represents a dose/weight cut-off of 59 kg, a group in which patients weighing less than 59 kg receive the low dose (30 μg) and patients weighing more than 59 kg receive the high dose (45 μg). Another example can be illustrated using a weight cutoff of 68 kg. Such a group would include all those patients who weigh less than 68 kg and who originally received the low dose (30 μg) as well as all those patients who weigh more than 68 kg and who originally received the high dose (45 μg). By using this method, over 100 separate cohorts were created by altering the dose/weight cut-off in increments of 0.5 kg. A summary of the data generated by these new dose/weight cut-off cohorts, using 68 kg and 59 kg as the dose/weight cut-off, is shown in the table below.\nThe table above illustrates the actual clinical profile obtained for two dose/weight cutoffs (59 kg which produces a higher exposure profile since more patients receive the higher dose and 68 kg in which more patients receive the lower dose). […] One problem with simple subgroup analysis is that endpoints with a small number of events can skew the observed profile because of large changes in incidence when one of these events moves from one side of the weight cutoff to the other. Therefore, the dose/weight cutoff methodology was applied systematically to the data from the 30 and 45 μg dose groups starting at the lowest weight patient in the study (corresponds to the 45 μg profile because everyone receives the high dose) and increasing the cutoff by 0.5 kg increments through 100 kg (corresponding to the 30 μg profile because everyone receives the low dose). The multiple cutoff profiles thus obtained when graphed can then smooth out the effect of individual events as illustrated for the effect on hypercalcemia. The effect of weight cutoff on clinical profile can then be modeled to eliminate the skewing effects of individual data points as illustrated in FIG. 37-40. This approach has been applied to primary and secondary endpoints in the study.\nAn important benefit of this modeling is that it is possible to project a clinical profile for a specific weight cutoff/dose exposure window with a high degree of accuracy since the effect of individual events is eliminated. The anticipated hypercalcemia and lumbar spine BMD profile for a 68 kg cutoff is illustrated in the table below, which compares the modeled hypercalcemia and lumbar spine BMD changes and the actual Phase II data for the 68 kg weight cutoff. It will also be possible to model the effects of even narrower exposure windows by using multiple dose cutoffs and different doses."}, "[2]": {"system": "monkey", "assay": "Toxicity, 12 mth monkey", "format": "in vivo", "excerpt": "(§1) A NoAEL was not established for the monkey. […] Ostabolin-C™ is at least 4-fold safer than PTH-(1-34)."}, "[3]": {"assay": "Toxicity, 12 mth monkey", "format": "in vivo", "settings": "in vivo; Ostabolin C, 12 mth monkey", "excerpt": "as §1"}, "[4]": {"system": "rats", "assay": "Rat oncogenicity study, 104 weeks subcutaneous", "format": "in vivo", "settings": "0.5, 5, 30, and 50 μg/kg/day SC", "description": "Prior art PTHs cause osteosarcomas in animals if administered over a course of two years. The PTH peptides of the present invention, including Ostabolin-C™ and PTH 1-30, are administered subcutaneously to rats for 104 weeks at doses of 0.5, 5, 30, and 50 μg/kg/day. The test article is administered subcutaneously. […] This difference could be due to the different amino acids sequences and/or to the different signalling pathways activated by the PTH molecules."}},
  "note": "Positions of bridges follow the written chain, without caps; N, C: chain ends. Residues, ends and D or L forms follow the SMILES beside them.",
  "data": [
    {"compound": "CC[C@H](C)[C@H](NC(=O)[C@H](CCC(=O)O)NC(=O)[C@H](CO)NC(=O)[C@@H](NC(=O)[C@@H](N)CO)C(C)C)C(=O)N[C@@H](CCC(N)=O)C(=O)N[C@@H](CC(C)C)C(=O)N[C@@H](CCSC)C(=O)N[C@@H](Cc1c[nH]cn1)C(=O)N[C@@H](CC(N)=O)C(=O)N[C@@H](CC(C)C)C(=O)NCC(=O)N[C@@H](CCCCN)C(=O)N[C@@H](Cc1c[nH]cn1)C(=O)N[C@@H](CC(C)C)C(=O)N[C@@H](CC(N)=O)C(=O)N[C@@H](CO)C(=O)N[C@@H](CCSC)C(=O)N[C@@H](CCC(=O)O)C(=O)N[C@@H](CCCN=C(N)N)C(=O)N[C@H](C(=O)N[C@H]1CCC(=O)NCCCC[C@@H](C(=O)N[C@@H](CC(C)C)C(=O)N[C@@H](CC(C)C)C(=O)N[C@@H](CCC(N)=O)C(=O)N[C@@H](CC(=O)O)C(=O)N[C@H](C(N)=O)C(C)C)NC(=O)[C@H](CCCN=C(N)N)NC(=O)[C@H](CC(C)C)NC(=O)[C@H](Cc2c[nH]c3ccccc23)NC1=O)C(C)C", "note": "[Ostabolin-C, [Leu^27]cyclo[Glu^22-Lys^26]-PTH-(1-31)-NH2] (H-SVSEIQLMHNLGKHLNSMERVEWLRKLLQDV-NH2; lactam 22-26)", "values": [
      {"measurement": "% of hypercalcemia", "setting": "[1]; 4 months, weight cutoff of approximately 68 kg (FIG. 37)", "result": "less than 15%"},
      {"measurement": "Sitting HR", "setting": "[1]; 59 kg cut", "result": 4.1},
      {"measurement": "Headache", "setting": "[1]; 59 kg cut", "result": 20.6, "unit": "%"},
      {"measurement": "HyperCa > 2.65", "setting": "[1]; 59 kg cut", "result": 22, "unit": "%"},
      {"measurement": "HyperCa > 2.75", "setting": "[1]; 59 kg cut", "result": 6, "unit": "%"},
      {"measurement": "N + H", "setting": "[1]; 59 kg cut", "result": 12.7, "unit": "%"},
      {"measurement": "Nausea", "setting": "[1]; 59 kg cut", "result": 31.7, "unit": "%"},
      {"measurement": "Sitting HR", "setting": "[1]; 68 kg cut", "result": 3.1},
      {"measurement": "Headache", "setting": "[1]; 68 kg cut", "result": 12.8, "unit": "%"},
      {"measurement": "HyperCa > 2.65", "setting": "[1]; 68 kg cut", "result": 12.8, "unit": "%"},
      {"measurement": "HyperCa > 2.75", "setting": "[1]; 68 kg cut", "result": 7.7, "unit": "%"},
      {"measurement": "N + H", "setting": "[1]; 68 kg cut", "result": 10.6, "unit": "%"},
      {"measurement": "Nausea", "setting": "[1]; 68 kg cut", "result": 31.9, "unit": "%"},
      {"measurement": "HyperCa > 2.65", "setting": "[1]; 68 kg cutoff, modeled", "result": 14.8, "unit": "%"},
      {"measurement": "HyperCa > 2.75", "setting": "[1]; 68 kg cutoff, modeled", "result": 7.6, "unit": "%"},
      {"measurement": "fold less nephrotoxic than PTH-(1-34)", "setting": "[2]; 12 mth monkey", "result": ">4-fold less"},
      {"measurement": "hypercalaemic (DIFFERENCES column)", "setting": "[2]; 12 mth monkey", "result": "Ostabolin-C not"},
      {"measurement": "Bone hypertrophy", "setting": "[2]; Ostabolin C 0, 2, 10, 25 μg/kg, 12 mth monkey", "result": "hypertrophy all"},
      {"measurement": "fold safer than PTH-(1-34)", "setting": "[2]; pre-clinical toxicity", "result": "at least 4 fold"},
      {"measurement": "nephrotoxicity", "setting": "[2]; pre-clinical toxicity", "result": "nephrotoxic only in monkeys"},
      {"measurement": "NOAEL at 12 mth", "setting": "[3]", "result": 2, "unit": "µg/kg"},
      {"measurement": "incidence of osteosarcomas compared to prior art PTH peptides", "setting": "[4]", "result": "lower incidences of osteosarcomas"}
    ]}
  ]
}
